{"source": "patent US20150126507A1", "about": "“COMPOUNDS TO TREAT HEARING LOSS” (Fate Therapeutics, Inc., priority 2013, published 2015)", "format_in_all_cases": "cell-based", "key": {"[1]": {"system": "Atoh1 enhancer reporter in HEK293 cells", "experiment": "Atoh1 reporter cell line, firefly luciferase normalized to renilla luciferase", "conditions": "Homo sapiens, HEK293, 48 h, Atoh1 reporter HEK293 cells, treated 2 days, dose response; read-out: ED50 (the source's name)", "experimental": "FIG. 2. Dose response data for selected hits. Atoh1 reporter cells plated in 384 well plates were treated with test compounds or vehicle controls for 2 days. Firefly luciferase signal was measured and normalized to the renilla luciferase signal. Results from duplicate wells (circles and triangles) are expressed relative to normalized controls treated with DMSO.\nA reporter cell line expressed in HEK293 cells in which Atoh1 enhancer elements flanked a minimal promoter driving firefly luciferase expression was created. Dose response data was generated in the reporter cell line. Atoh1 reporter cells plated in […] plates were treated with test compounds or vehicle controls for 2 days. Firefly luciferase signal was measured and normalized to the renilla luciferase signal.\nFor high-throughput screening, HEK293 cells were transduced with a lentiviral vector containing a concatamer of Atoh1 enhancer A and B elements, the Promega minP minimal promoter, firefly luciferase coding sequence and hygromycin selectable marker. After selection, the cells were transduced with a second lentiviral vector containing the EF1α constitutive promoter, Renilla luciferase and puromycin selectable marker. A clonal derivative expressing both transgenes was expanded and banked for screening.\nA screening assay was done by plating 8000 cells/well in 384 well plates, and treating for 48 hours with 1 and 10 μM test compound in DMSO, vehicle control, or the GSK-3B inhibitor, BIO, as a positive control. Firefly and Renilla luciferase were measured sequentially using Dual-Glo (Promega) with an Envision multi-label plate reader (Perkin Elmer). Data were analyzed after normalizing firefly luciferase signals to Renilla luciferase signals. A primary screen of 50,000 diverse compounds identified 140 hits. […] 10 of these 41 hits were selected for further analysis\nTo confirm activity in the 10 selected hits, the test compounds were reassayed at 3.3×10^−9, 1×10^−8, 3.3×10^−8, 1×10^−7, 3.3×10^−7, 1×10^−6, 3.3×10^−6 and 1×10^−5 molar concentrations. […] Results from duplicate wells (circles and triangles) are expressed relative to normalized controls treated with DMSO."}, "[2]": {"system": "Atoh1 expression in P5 rat cochlear explants", "experiment": "Cochlear explant assay, Atoh1 expression by qRT-PCR after tobramycin pretreatment", "conditions": "1 mM tobramycin pretreatment, then compound vs DMSO", "experimental": "FIG. 3. Postnatal day 5 rat cochleae were cultured for 2 days with 1 mM tobramycin and then 3 days with test compound or vehicle. Relative Atoh1 expression was measured by qRT-PCR. Results are expressed as average±S.D. for >7 individual cochleae per treatment group. * p<0.05, student's t-test.\nThe ten selected hits of Example 43 were assayed for the ability to induce Atoh1 expression in primary cultured cochlear explants from the neonatal rat. Postnatal day 5 (P5) rat cochlear explants were cultured with the ototoxic aminoglycoside antibiotic, tobramycin (1 mM), for 3 days prior to drug testing, as an in vitro model of drug-induced hearing loss. […] See, e.g., Ruedi, et al., Larynoscope 62:333-357 (1952). After the 3 day tobramycin pretreatment, the cochlear explants were cultured with the compounds of Example 43 or DMSO vehicle for an additional 2 days. Atoh1 expression levels, measured by qRT-PCR and normalized to ribosomal 18S expression, after hit compound treatments are shown in FIG. 3."}, "[3]": {"system": "Atoh1-GFP mouse cochlear explants", "experiment": "Atoh1-GFP reporter mouse cochlear explants, confocal imaging and immunostaining", "conditions": "40 μM, 3 days", "experimental": "FIG. 4. Confocal images of E13 and P0 Atoh1-GFP mouse cochlear explants cultured for 3 days in 40 μM Compound 4 or DMSO and immunostained with antibodies against the supporting cell marker Sox2 (red), the hair cell marker MyosinVIIa (Myo7a, blue) and an anti-GFP antibody (green). […] Scale bars: A and B (50 μm); C and E (500 μm); D and F (25 μm).\nTo identify which cells expressed Atoh1 after hit compound treatment, we utilized cochlear explants from embryonic and postnatal Atoh1-GFP reporter mice. See, e.g., Lumpkin, et al., Gene Expression Patterns 3:389-395 (2003). Both embryonic and neonatal cochleae were used in order to identify if there was a temporal window in which tissue was more responsive to drug treatment."}, "Atoh1 reporter cell line": {"system": "Atoh1 reporter cell line", "experiment": "Transcriptional profiling of Atoh1 reporter cell line by gene profiling microarray", "conditions": "5 μM, 2 days, vs DMSO", "experimental": "FIG. 5. An Atoh1 reporter cell line was treated with 5 μM Compound 4 or DMSO for 2 days. Gene expression was measured with a gene profiling microarray and plotted.\nIn an attempt to identify the signaling pathway by which Compound 4 induces Atoh1 expression, transcriptional profiling of the Atoh1 reporter cell line was compared after treatment with Compound 4 or DMSO control. The Atoh1 reporter cell line was treated with 5 μM or Compound 4 or DMSO for 2 days. […] An upregulation of endogenous Atoh1 with Compound 4 treatment in the reporter line was not observed, presumably because the overexpressed reporter sequence outcompeted the native Atoh1 regulatory domain. […] See, e.g., Martinez, et al., Toxicol. Sci. 82:429-435, (2004); Ito, et al., J. Immunotoxicol. 3(1):21-30 (2006); and Sun, et al., Nucleic Acids Res. 32(15):4512-4523 (2004). […] See, e.g., Qian, et al., J. Immunol. 166:2553-2561 (2001) and Kimura, et al., Biochem. Biophys. Res. Comm. 264:86-92 (1999)."}, "[4]": {"conditions": "P0 Atoh1-GFP mouse cochlear explants"}}, "note": "pEC50: −log10 of the molar value. “Also recorded” adds a separate entry of the source.", "data": [{"smiles": "Cc1c(C(=O)Nc2nccs2)oc2ccccc12", "note": "[Compound 4]", "values": [{"measurement": "pEC50", "setting": "[1]", "result": 5.89}, {"measurement": "Atoh1 expression by qRT-PCR normalized to ribosomal 18S", "setting": "[2]", "result": "largest stimulation of Atoh1 expression"}, {"measurement": "averaged total length of the organ of Corti vs DMSO", "setting": "[3]; Atoh1-GFP mouse cochlear explants", "result": "no difference"}, {"measurement": "GFP+ hair cells in E13 explants vs DMSO control", "setting": "[3]; E13 Atoh1-GFP mouse cochlear explants", "result": "greater number of GFP-positive hair cells; also recorded: increase in GFP+ hair cells"}, {"measurement": "GFP+ hair cells with Sox2+ nuclei in P0 explants", "setting": "[3]; [4]", "result": "numerous ectopic GFP+ hair cells with weak nuclear Sox2 expression; also recorded: numerous GFP+/MyosinVIIa+ cells were observed to have Sox2+ nuclei"}, {"measurement": "GFP-positive hair cell domain in P0 explants vs DMSO control", "setting": "[3]; [4]", "result": "expansion in the GFP+ hair cell domain; also recorded: expansion of the GFP-positive hair cell domain"}, {"measurement": "upregulation of annotated genes (EGR1, SCIN, CYP1A1, CYP1B1, TACT, MAFF)", "setting": "Atoh1 reporter cell line", "result": "greater than 3 fold"}, {"measurement": "upregulation of endogenous Atoh1", "setting": "Atoh1 reporter cell line", "result": "not observed"}]}]}
